{
  "source": "patent US8912120B2",
  "about": "“Herbicidal compositions comprising 4-amino-3-chloro-5-fluoro-6-(4-chloro-2-fluoro-3-methoxyphenyl) pyridine-2-carboxylic acid or a derivative thereof and synthetic auxin herbicides” (Dow AgroSciences, LLC., priority 2012, dated 2014)",
  "key": {"[1]": {"system": "LEFCH", "test": "Example II: in-water applied herbicidal mixtures, transplanted paddy rice, LEFCH", "format": "in vivo, Leptochloa chinensis (Chinese sprangletop)", "settings": "in-water application", "protocol": "(§1) The prepared mud was dispensed in 365 mL aliquots into 16-ounce (oz.) non-perforated plastic pots with a surface area of 86.59 square centimeters (cm^2) leaving a headspace of 3 centimeters (cm) in each pot Mud was allowed to dry overnight prior to planting or transplanting. Rice seeds were planted in Sun Gro MetroMix® 306 planting mixture, which typically has a pH of 6.0 to 6.8 and an organic matter content of about 30 percent, in plastic plug trays. Seedlings at the second or third leaf stage of growth were transplanted into 840 mL of mud contained in 32-oz. non-perforated plastic pots with a surface area of 86.59 cm^2 4 days prior to herbicide application. […] Nutrients were added as Osmocote® (19:6:12, N:P:K^+ minor nutrients) at 2 g per 16-oz. pot and 4 g per 32-oz. pot.\n(§2) Applications were made by injecting with a pipetter appropriate amounts of the application solutions, individually and sequentially, into the aqueous layer of the paddy. Control plants were treated in the same manner with the solvent blank. Applications were made so that all treated plant material received the same concentrations of acetone and crop oil concentrate."}, "[2]": {"system": "PANMI", "test": "Example III: postemergence foliar-applied herbicidal mixtures, row crop weeds, PANMI", "format": "in vivo, Panicum miliaceum (wild-proso millet)", "settings": "16 DAA", "protocol": "(§3) The plants were grown for 7-31 days (d) in a greenhouse with an approximate 15 hour (h) photoperiod which was maintained at about 23-29° C. during the day and 22-28° C. during the night."}, "[3]": {"system": "SINAR", "test": "Example V: postemergence herbicidal activity of mixtures in forage crops, SINAR", "format": "in vivo, Sinapis arvensis (wild mustard)", "settings": "alone, foliar, approximately 21 days", "summary_of_the_method": "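Plants grown from seed or root cuttings in MetroMix 306 (pH 6.0–6.8) for 14–60 days in greenhouse, ~14 h photoperiod, ~28/24 °C day/night. Foliar spray of two-way mixtures of the second herbicide or experimental compounds applied postemergence.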"}, "[4]": {"system": "CYPRO", "test": "Example II: in-water applied herbicidal mixtures, weed control in transplanted paddy rice (greenhouse), CYPRO", "format": "in vivo, Cyperus rotundus (purple nutsedge)", "settings": "280 gae/ha; in-water application", "protocol": "as §1, §2"}, "[5]": {"system": "CENMA", "test": "Example V: postemergence herbicidal activity of mixtures in forage crops, CENMA", "format": "in vivo, Centaurea maculosa (spotted knapweed)", "settings": "alone, foliar, approximately 21 days", "protocol": "(§4) Seeds or root cuttings of the desired test plant species were planted in Sun Gro MetroMix® 306 planting mixture, which typically has a pH of 6.0 to 6.8 and an organic matter content of about 30 percent, in plastic pots with a surface area of 126.6 square centimeters (cm^2). […] The plants were grown for 14-60 days in a greenhouse with an approximate 14 hour photoperiod which was maintained at approximately 28° C. during the day and 24° C. during the night.\n(§5) Spray solutions of the second herbicide or experimental compound mixtures were prepared by adding the stock solutions to the appropriate amount of dilution solution to form 12 mL spray solution with active ingredients in two-way combinations."}, "[6]": {"system": "ECHCG", "test": "Example II: in-water applied herbicidal mixtures, transplanted paddy rice, ECHCG", "format": "in vivo, Echinochloa crus-galli (barnyardgrass)", "settings": "in-water application", "protocol": "as §1, §2"}, "[7]": {"system": "SONAR", "test": "Example V: postemergence herbicidal activity of mixtures in forage crops, SONAR", "format": "in vivo, Sonchus arvensis (field sowthistle)", "settings": "alone, foliar, approximately 21 days", "protocol": "as §4, §5"}, "[8]": {"system": "ELEIN", "test": "Example III: postemergence foliar-applied herbicidal mixtures, weeds common to row crops such as corn and soybeans (greenhouse), ELEIN", "format": "in vivo, Eleusine indica (goosegrass)", "settings": "14 DAA", "protocol": "as §3"}, "[9]": {"system": "SCPJU", "test": "Example II: in-water applied herbicidal mixtures, transplanted paddy rice, SCPJU", "format": "in vivo, Schoenoplectus juncoides (Japanese bulrush)", "settings": "in-water application", "protocol": "as §1, §2"}, "[10]": {"system": "ECHOR", "test": "Example II: in-water applied herbicidal mixtures, transplanted paddy rice, ECHOR", "format": "in vivo, Echinochloa oryzoides (early watergrass)", "settings": "280 gae/ha; in-water application", "protocol": "as §1, §2"}, "[11]": {"system": "PANDI", "test": "Example III: postemergence foliar-applied herbicidal mixtures, row crop weeds, PANDI", "format": "in vivo, Panicum dichotomiflorum (fall panicum)", "settings": "16 DAA", "protocol": "as §3"}, "[12]": {"system": "BRSNN", "test": "Example IV: postemergence foliar-applied herbicidal mixtures, cereal crops, BRSNN", "format": "in vivo, Brassica napus (volunteer canola)", "settings": "alone, 3 gai/ha, foliar, 20-22 days", "protocol": "as §4, with “Seeds” for “Seeds or root cuttings”, “MetroMix” for “MetroMix®”, “103.2” for “126.6”, “7-36” for “14-60”, “about 18°” for “approximately 28°”, “17°” for “24°”\n(§6) Spray solutions of the second cereal herbicide and experimental compound mixtures were prepared by adding the stock solutions to the appropriate amount of dilution solution to form 12 mL spray solution with active ingredients in two- and three-way combinations."}, "[13]": {"system": "POLCO", "test": "Example IV: postemergence foliar-applied herbicidal mixtures, cereal crops, POLCO", "format": "in vivo, Polygonum convolvulus (wild buckwheat)", "settings": "alone, foliar, 20-22 days", "protocol": "as §4, with “Seeds” for “Seeds or root cuttings”, “MetroMix” for “MetroMix®”, “103.2” for “126.6”, “7-36” for “14-60”, “about 18°” for “approximately 28°”, “17°” for “24°”\nas §6"}, "[14]": {"system": "CIRAR", "test": "Example IV: postemergence foliar-applied herbicidal mixtures, cereal crops, CIRAR", "format": "in vivo, Cirsium arvense (Canada thistle)", "settings": "alone, 20-22 days", "protocol": "as §4, with “Seeds” for “Seeds or root cuttings”, “MetroMix” for “MetroMix®”, “103.2” for “126.6”, “7-36” for “14-60”, “about 18°” for “approximately 28°”, “17°” for “24°”\nas §6"}, "[15]": {"system": "AMARE", "test": "Example IV: postemergence foliar-applied herbicidal mixtures, weed control in cereal crops in the greenhouse, AMARE", "format": "in vivo, Amaranthus retroflexus (redroot pigweed)", "settings": "alone, 35 gai/ha, 20-22 days", "protocol": "as §4, with “Seeds” for “Seeds or root cuttings”, “MetroMix” for “MetroMix®”, “103.2” for “126.6”, “7-36” for “14-60”, “about 18°” for “approximately 28°”, “17°” for “24°”\nas §6"}, "[16]": {"system": "VIOTR", "test": "Example IV: postemergence foliar-applied herbicidal mixtures, cereal crops, VIOTR", "format": "in vivo, Viola tricolor (wild pansy)", "settings": "alone, foliar, 20-22 days", "protocol": "as §4, with “Seeds” for “Seeds or root cuttings”, “MetroMix” for “MetroMix®”, “103.2” for “126.6”, “7-36” for “14-60”, “about 18°” for “approximately 28°”, “17°” for “24°”\nas §6"}, "[17]": {"system": "STEME", "test": "Example IV: postemergence foliar-applied herbicidal mixtures, cereal crops, STEME", "format": "in vivo, Stellaria media (common chickweed)", "settings": "alone, 10 gai/ha, 20-22 days", "protocol": "as §4, with “Seeds” for “Seeds or root cuttings”, “MetroMix” for “MetroMix®”, “103.2” for “126.6”, “7-36” for “14-60”, “about 18°” for “approximately 28°”, “17°” for “24°”\nas §6"}},
  "note": "Where a name gives a salt, the structure may show the parent alone.",
  "data": [
    {"compound": "O=C(O)COc1ccc(Cl)cc1Cl", "note": "[2,4-D DMA Salt, 2-(2,4-dichlorophenoxy)acetic acid with N-methylmethanamine, reference compound]", "values": [
      {"measurement": "Visual Weed Control (%) - 21 DAA LEFCH Obs", "setting": "[1]; 140 gae/ha", "value": 0, "unit": "%"},
      {"measurement": "Visual Weed Control (%) - 21 DAA LEFCH Obs", "setting": "[1]; 280 gae/ha", "value": 60, "unit": "%"},
      {"measurement": "Visual Weed Control (%) Obs", "setting": "[2]; 52.5 gae/ha", "value": 0, "unit": "%"},
      {"measurement": "Visual Weed Control (%) Obs", "setting": "[2]; 105 gae/ha", "value": 10, "unit": "%"},
      {"measurement": "SINAR Obs (observed value)", "setting": "[3]; 35 gae/ha", "value": 35, "unit": "%"},
      {"measurement": "SINAR Obs (observed value)", "setting": "[3]; 70 gae/ha", "value": 80, "unit": "%"},
      {"measurement": "Visual Weed Control (%) - 21 DAA CYPRO Obs", "setting": "[4]", "value": 0, "unit": "%"},
      {"measurement": "CENMA Obs (observed value)", "setting": "[5]; 35 gae/ha", "value": 30, "unit": "%"},
      {"measurement": "CENMA Obs (observed value)", "setting": "[5]; 70 gae/ha", "value": 50, "unit": "%"},
      {"measurement": "Visual Weed Control (%) - 21 DAA ECHCG Obs", "setting": "[6]; 140 gae/ha", "value": 0, "unit": "%"},
      {"measurement": "Visual Weed Control (%) - 21 DAA ECHCG Obs", "setting": "[6]; 280 gae/ha", "value": 0, "unit": "%"},
      {"measurement": "SONAR Obs (observed value)", "setting": "[7]; 35 gae/ha", "value": 20, "unit": "%"},
      {"measurement": "SONAR Obs (observed value)", "setting": "[7]; 70 gae/ha", "value": 85, "unit": "%"},
      {"measurement": "Visual Weed Control (%) Obs", "setting": "[8]; 52.5 gae/ha", "value": 0, "unit": "%"},
      {"measurement": "Visual Weed Control (%) Obs", "setting": "[8]; 105 gae/ha", "value": 0, "unit": "%"},
      {"measurement": "Visual Weed Control (%) - 21 DAA SCPJU Obs", "setting": "[9]; 140 gae/ha", "value": 0, "unit": "%"},
      {"measurement": "Visual Weed Control (%) - 21 DAA SCPJU Obs", "setting": "[9]; 280 gae/ha", "value": 0, "unit": "%"},
      {"measurement": "Visual Weed Control (%) - 21 DAA ECHOR Obs", "setting": "[10]", "value": 15, "unit": "%"},
      {"measurement": "Visual Weed Control (%) Obs", "setting": "[11]; 105 gae/ha", "value": 0, "unit": "%"},
      {"measurement": "Visual Weed Control (%) Obs", "setting": "[11]; 210 gae/ha", "value": 0, "unit": "%"}
    ]},
    {"compound": "Nc1cc(Cl)nc(C(=O)O)c1Cl", "note": "[Aminopyralid, 4-amino-3,6-dichloro-2-pyridinecarboxylic acid]", "values": [
      {"measurement": "BRSNN Ob (observed value)", "setting": "[12]", "value": 0, "unit": "%"},
      {"measurement": "POLCO Ob (observed value)", "setting": "[13]; 3 gai/ha", "value": 3, "unit": "%"},
      {"measurement": "CIRAR Ob (observed value)", "setting": "[14]; 3 gai/ha", "value": 13, "unit": "%"}
    ]},
    {"compound": "Nc1c(Cl)c(F)nc(OCC(=O)O)c1Cl", "note": "[Fluroxypyr, 2-[(4-amino-3,5-dichloro-6-fluoro-2-pyridinyl)oxy]acetic acid]", "values": [
      {"measurement": "POLCO Ob (observed value)", "setting": "[13]; 35 gai/ha", "value": 23, "unit": "%"},
      {"measurement": "AMARE Ob (observed value)", "setting": "[15]", "value": 33, "unit": "%"},
      {"measurement": "VIOTR Ob (observed value)", "setting": "[16]; 35 gai/ha", "value": 10, "unit": "%"},
      {"measurement": "CIRAR Ob (observed value)", "setting": "[14]; 35 gai/ha", "value": 3, "unit": "%"}
    ]},
    {"compound": "Nc1c(Cl)c(Cl)nc(C(=O)O)c1Cl", "note": "[Picloram, 4-amino-3,5,6-trichloro-2-pyridinecarboxylic acid]", "values": [
      {"measurement": "POLCO Ob (observed value)", "setting": "[13]; 10 gai/ha", "value": 40, "unit": "%"},
      {"measurement": "VIOTR Ob (observed value)", "setting": "[16]; 10 gai/ha", "value": 3, "unit": "%"},
      {"measurement": "STEME Ob (observed value)", "setting": "[17]", "value": 0, "unit": "%"}
    ]}
  ]
}
